The source of these data is the Kinase Knowledgebase extract (Sharma et al. 2016).

A word on the IC50: it is the concentration that gives 50% inhibition. A higher IC50 goes with a need for much substance.

One assay has as its target EGFR (human) (UniProt P00533). The settings on record: kb epidermoid nasopharynx.
The target in the next assay is EGFR (UniProt P00533).
Sequence of EGFR (P00533 whole entry, looked up): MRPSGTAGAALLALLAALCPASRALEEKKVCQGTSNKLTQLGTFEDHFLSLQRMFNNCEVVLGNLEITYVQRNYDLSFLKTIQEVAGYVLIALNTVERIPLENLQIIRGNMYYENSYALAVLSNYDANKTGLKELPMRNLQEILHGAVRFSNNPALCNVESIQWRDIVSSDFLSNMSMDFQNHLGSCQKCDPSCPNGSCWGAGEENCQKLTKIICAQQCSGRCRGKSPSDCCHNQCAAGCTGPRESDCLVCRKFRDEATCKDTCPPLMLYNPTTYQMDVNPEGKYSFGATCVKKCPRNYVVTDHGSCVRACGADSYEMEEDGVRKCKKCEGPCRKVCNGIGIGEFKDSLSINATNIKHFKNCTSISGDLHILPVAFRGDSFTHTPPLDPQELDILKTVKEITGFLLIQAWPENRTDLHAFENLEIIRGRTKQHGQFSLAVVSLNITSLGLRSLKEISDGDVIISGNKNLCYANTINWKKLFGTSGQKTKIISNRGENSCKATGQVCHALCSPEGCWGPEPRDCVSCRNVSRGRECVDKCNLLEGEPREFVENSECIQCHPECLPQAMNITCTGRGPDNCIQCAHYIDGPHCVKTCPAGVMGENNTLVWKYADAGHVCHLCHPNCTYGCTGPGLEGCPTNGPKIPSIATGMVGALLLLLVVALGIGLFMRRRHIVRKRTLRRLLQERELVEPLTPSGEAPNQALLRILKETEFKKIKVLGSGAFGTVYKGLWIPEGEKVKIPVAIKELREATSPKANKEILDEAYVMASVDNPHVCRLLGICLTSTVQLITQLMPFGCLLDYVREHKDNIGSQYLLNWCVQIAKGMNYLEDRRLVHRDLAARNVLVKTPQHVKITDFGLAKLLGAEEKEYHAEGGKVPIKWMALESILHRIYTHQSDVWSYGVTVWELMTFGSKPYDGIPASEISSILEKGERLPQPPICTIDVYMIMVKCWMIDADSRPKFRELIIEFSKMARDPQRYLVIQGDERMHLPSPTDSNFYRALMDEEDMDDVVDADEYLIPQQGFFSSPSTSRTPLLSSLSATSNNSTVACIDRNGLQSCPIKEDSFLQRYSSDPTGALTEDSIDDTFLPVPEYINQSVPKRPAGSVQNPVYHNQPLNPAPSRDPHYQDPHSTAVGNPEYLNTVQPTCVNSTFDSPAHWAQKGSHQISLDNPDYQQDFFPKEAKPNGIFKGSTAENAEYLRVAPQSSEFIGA

Sequence of EGFR (human) (P00533 whole entry, looked up): as above

For `COCC(=O)N1CCC(Oc2cc3ncnc(Nc4cccc(Cl)c4F)c3cc2OC)CC1`, the half-inhibitory concentration (IC50) against EGFR (human) is 55 nM. On the same count and under the same terms, for `COc1cc2c(Nc3cccc(Cl)c3F)ncnc2cc1OC1CCN(C(=O)CO)CC1` the value was 37 nM. Still for that read-out and setting: for `COc1cc2c(Nc3cccc(Cl)c3F)ncnc2cc1OC1CN(C(=O)[C@H](C)O)C1` the value was 71 nM. On to `COCCOCC(=O)N1CCC(Oc2cc3ncnc(Nc4cccc(Cl)c4F)c3cc2OC)CC1`, for which the concentration for half-maximal inhibition (IC50) against EGFR (human) was 112 nM. Still for that read-out and setting: with `COCCC(=O)N1CCC(Oc2cc3ncnc(Nc4cccc(Cl)c4F)c3cc2OC)CC1` the figure was 84 nM. `COc1cc2c(Nc3cccc(Cl)c3F)ncnc2cc1OC1CCN(C(=O)CCO)CC1` returned a concentration for half-maximal inhibition (IC50) against EGFR (human) of 109 nM. For the molecule `COCC(=O)N1CC[C@@H](Oc2cc3ncnc(Nc4cccc(Cl)c4F)c3cc2OC)C1`, the IC50 on EGFR (human) stood at 119 nM.

On EGFR (human), `COc1cc2ncnc(Nc3ccc(F)c(Cl)c3)c2cc1CN1CCC[C@@H]1C(=O)NCC#N` returned an IC50 of 143 nM. For the molecule `COc1cc2c(Nc3cccc(Cl)c3F)ncnc2cc1O[C@@H]1CCN(C(=O)C2CCC(=O)N2)C1` (stereo partly drawn), the concentration for half-maximal inhibition (IC50) on EGFR was 41 nM; against EGFR (human), 397 nM. `COCCN1CCN(Cc2cc3c(Nc4cccc(Cl)c4F)ncnc3cc2OC)C(C(N)=O)C1` (stereo not drawn) came in with a 50% inhibitory concentration (IC50) against EGFR (human) of 160 nM. Same read-out and setting: with `COc1cc2c(Nc3cccc(Cl)c3F)ncnc2cc1OC1CN(C(=O)[C@@H](C)O)C1` the figure was 48 nM; with `COc1cc2ncnc(Nc3cccc(Cl)c3F)c2cc1CN1CSC[C@H]1C(N)=O`, 50 nM.
